Columns and labels:
S. epidermidis AgrC-I [1] = molecular target: T1, S. epidermidis AgrC-I (Staphylococcus epidermidis, UniProt Q5HMY3); assay type: cell-based; conditions: for IC50: AgrC-I antagonism dose response, peptide alone, Group-I reporter strain, 24 h
S. epidermidis AgrC-I [2] = molecular target: T1, S. epidermidis AgrC-I; assay type: cell-based; conditions: AgrC-I activation dose response in the presence of 50 nM S. epidermidis AIP-II
S. epidermidis AgrC-II = experiment: AgrC-II modulation, Group-II GFP reporter strain AH3567; assay type: cell-based, Staphylococcus epidermidis
S. epidermidis AgrC-III = experiment: AgrC-III modulation, Group-III GFP reporter strain AH3409; assay type: cell-based, Staphylococcus epidermidis; conditions: initial single-concentration screen, 10 μM (Figures S-2, 2A)

| Substance | IC50 (S. epidermidis AgrC-I [1]) | EC50 (S. epidermidis AgrC-I [2]) | AgrC-II (Group-II) inhibition, single concentration (S. epidermidis AgrC-II; initial single-concentration screen, 10 μM (Figures S-1, 2A)) | AgrC-III (Group-III) inhibition, single concentration (S. epidermidis AgrC-III) | AgrC-I dose response behaviour (S. epidermidis AgrC-I [1]; two isolated AIP-I A5S products) | Activity toward Group-II (AgrC-II) at lower concentration (S. epidermidis AgrC-II; 100 nM (lower-concentration screen 1 μM or 100 nM; Figure 2A)) |
| --- | --- | --- | --- | --- | --- | --- |
| D-S-V-(C-A-S-A-F) [AIP-I Y7A] | Inactive ^c | Inactive ^c | ~ 50% | ~ 50% |  |  |
| D-S-V-(C-A-S-DY-F) [AIP-I D-Y7] | Inactive ^c | Inactive ^c |  |  |  |  |
| D-S-V-(C-A-S-Y-A) [AIP-I F8A] | Inactive ^c | Inactive ^c |  |  |  |  |
| D-S-V-(C-DA-S-Y-F) [AIP-I D-A5] | Inactive ^c | Inactive ^c |  |  |  |  |
| D-S-V-(C-S-S-Y-F) [A5S-2] |  |  |  |  | very weak inhibition at low concentrations yet activation at higher concentrations |  |
| D-S-V-(DC-A-S-Y-F) [AIP-I D-C4] | Inactive ^c | Inactive ^c |  |  |  |  |
| I-N-(C-A-F-L-L) [S. aureus AIP-III D4A, reference compound] | Inactive ^c | Inactive ^c |  |  |  | inhibiting exclusively Group-II |
| I-N-(C-D-F-L-L) [S. aureus AIP-III, reference compound] | Inactive ^c | Inactive ^c |  |  |  |  |
| Y-S-T-(C-D-F-I-M) [S. aureus AIP-I, reference compound] | Inactive ^c | Inactive ^c |  |  |  |  |

Source: article PMC4946969 (ACS chemical biology, 2016)
